Experimental data published in patent US7186544B2, “Agents for promoting fattening of animals and method of promoting fattening” (Fuso Chemical Co., Ltd., priority 1999, dated 2007).

What was measured:
[1] = system: contents of pig large intestines; assay: Example 12: static culture of pig large intestine contents, acids and ammonia; type: cell-based, pigs
Experimental: Three pigs were acclimated for 1 week, and the contents of their large intestines were taken out. The contents were diluted 5-fold with an anaerobic phosphate buffer (50 mM, pH 6.5), and then filtrated through 4-layered gauze. 25 mL of the resulting filtrate was put into serum bottles of 120 mL volume, and the gas phase therein was purged with a mixed gas of nitrogen/carbon dioxide (80/20). The bottles were sealed with butyl rubber stoppers and aluminum seals, and left for static culture at 39° C. for 24 hours (n=3).
Prior to putting the intestinal filtrate into the serum bottles, 1 w/v % glucose (positive control) and 1 w/v % sodium gluconate were put in the bottles, except for an additive-free control (negative control).
After the intestinal filtrate was thus cultivated, 1 mL of 6 N hydrochloric acid was added thereto to stop fermentation. The resulting cultures were analyzed as follows:
The cultures were pre-treated according to the Ushida and Sakata's conditions (Anim. Sci. Technol., 69, 571–575, […]), and then were analyzed on the concentration of short-chain fatty acids, succinic acid and lactic acid therein by HPLC and the concentration of ammonia therein by the indophenol method (Weatherburn, Analytic Chem., 39, 971–974, 1967). Subtracting the concentration before cultivation from that after cultivation gives the amount (mM) generated through fermentation.

piglets = assay: Test Example 4: feeding test in piglets, 8 weeks, sodium gluconate dose series; type: in vivo, pigs; details: for Body Weight Increase ± S.D. / Feed Conversion Ratio ± S.D.: piglets about 20 kg, 8 weeks; for Body Weight Increase (index %) / Feed Conversion Ratio (index %): control with no additive = 100
Text: To a feed for latter artificial milk suckling-stage piglets (manufactured by Nippon Kagaku Shiryo Kyokai) and to a feed for raising piglets (manufactured by Nippon Kagaku Shiryo Kyokai), added were 0.05, 0.1, 0.25, 0.5 and 1.0%, relative to the weight of the feeds, of sodium gluconate.
The above-mentioned feeds were fed to groups of piglets (body weight: about 20 kg), each group being composed of 4 piglets (2 male piglets and 2 female piglets), continuously for 8 weeks (the feed for latter artificial milk for the former 2 weeks and the feed for raising piglets for the latter 6 weeks). During the period of the feeding test, each of the piglets was weighed every week, and an increase in the body weight was calculated for every group. In each group, checked was the feed intake during the period between the days on which the body weight was measured, and the feed conversion ratio was calculated.
This test was repeated 10 times for the group not having taken sodium gluconate and the group having taken 0.5% sodium gluconate, but 5 times for the other groups having taken sodium gluconate in different concentrations. The obtained body weight increases and the feed conversion ratios were averaged for every group.

Megasphaera elsdenii [2] = assay: Example 14: count of isolated strain in 144-hour culture; type: cell-based
Experimental: (§1) Pigs were acclimated for 1 week, and the contents of their large intestines were taken out. The contents were diluted 5-fold with an anaerobic phosphate buffer (50 mM, pH 6.5), and then filtrated through 4-layered gauze. One mL of the resulting filtrate was inoculated on a PYF medium (100 mL) with 1 w/v % sodium gluconate added thereto, and incubated in an anaerobic condition at 39° C.
(§2) During incubation, 5 mL of a sterilized 10 w/v % aqueous solution of sodium gluconate were put into the medium at intervals of 48 hours.
(§3) The culture without sodium gluconate and the culture with sodium gluconate added thereto were sampled on 0, 8, 24, 48, 96 and 144 hours in a germ-free condition, and the samples were diluted to 10^−5. 0.05 mL of each dilution were inoculated on BL agar media (manufactured by Nissui), and anaerobically incubated at 37° C. for 48 hours. The number of colonies of anaerobic microorganisms having grown in agar plates was counted (Table 7).
(§4) At the same time, according to the properties of the colonies thus grown, strains having grown only on the agar plate inoculated with the 144-hour sample of sodium gluconate-added culture were isolated, and they were counted and identified (Table 8).

Mitsuokella multiacidus [3] = assay: as above; type: cell-based
Experimental: as §1, §2, §3, §4

[4] = system: new born broiler chicks (Chunky); assay: Test Example 3: feeding / drinking water test in broiler chicks, 8 weeks; type: in vivo, chickens; details: 0.5% in feed and 0.14% in drinking water vs chicks not having taken sodium gluconate
Experimental: The feeds of Example 10 and Comparative Example 4 and the drinking water prepared in Example 11 were fed to groups of new born broiler chicks (Chunky), each group being composed of 50 chicks (25 male chicks and 25 female chicks), continuously for 8 weeks. At the start of the feeding test, on two weeks, 4 weeks and 6 weeks after the start of the test, and at the end of the test, that is, five times in all, the chicks were weighed individually, and an increase in the body weight was calculated for every group. In each group, checked was the feed intake during the period between the days on which the body weight was measured, and the feed conversion ratio was calculated from the overall body weight increase and the overall feed intake.

[5] = system: contents of pig large intestines; assay: Example 13: fermentation gas generated in culture of pig large intestine contents; type: cell-based, pigs
Experimental: The amount of fermentation gas generated in the cultivation of Example 12 was measured by putting a glass syringe equipped with an injection needle into a head space of the serum bottle, sucking the gas until normal pressure is reached and measuring the sucked gas by a syringe scale.
The composition of the gas was analyzed for carbon dioxide, methane, hydrogen and hydrogen sulfide by TCD and FPD gas chromatography (Ushida, et al.; Jpn. J. Zootech. Sci., 53, 412–416, 1982, and Anim. Sci. Technol., 69, 571–575, 1998).

Megasphaera elsdenii [6] = assay: Example 15: short-chain fatty acid production by isolated strain; type: cell-based
Experimental: (§5) The strains Megasphaera elsdenii and Mitsuokella multiacidus having grown in Example 14 were anaerobically incubated in PYF media (100 mL) with 1% w/v sodium gluconate added thereto, at 39° C. for 24 hours. The cultures were analyzed on the concentration of the short-chain fatty acids (mM) therein in the same manner as in Example 12.

Mitsuokella multiacidus [7] = assay: as above; type: cell-based
Experimental: as §5

anaerobic microorganisms = assay: Example 14: number of colonies of anaerobic microorganisms in PYF culture of pig intestinal filtrate; type: cell-based, pigs
Experimental: as §1, §2, §3

[8] = after cultivation, 1 w/v % additive, 39° C., 24 hours, n=3
[9] = index based on the data before cultivation of 100
[10] = 0.05% added to feed, 5 test cycles
[11] = 0.1% added to feed, 5 test cycles
[12] = 0.25% added to feed, 5 test cycles
[13] = 0.5% added to feed, 10 test cycles
[14] = 1.0% added to feed, 5 test cycles
[15] = 144-hour sample of sodium gluconate-added culture
[16] = cultivation of Example 12, 1 w/v % additive, n=3
[17] = PYF medium with 1% w/v sodium gluconate, 39° C., 24 hours
[18] = sodium gluconate added minus control with no additive

SMILES: O=C([O-])[C@H](O)[C@@H](O)[C@H](O)[C@H](O)CO.[Na+] [Sodium Gluconate, sodium gluconate]
- Acetic Acid [1, 8]: 161.90 mM
- Ammonia [1, 8]: 5.79 mM
- Butyric Acid [1, 8]: 70.36 mM
- Lactic Acid [1, 8]: 0 mM
- Propionic Acid [1, 8]: 103.25 mM
- Succinic Acid [1, 8]: 0 mM
- lactic acid, succinic acid and ammonia in the cultures ([1]; in words): greatly reduce
- concentration of acetic acid, propionic acid and butyric acid in the cultures ([1]; in words, compared with cultures without sodium gluconate): greatly increased
- Acetic Acid (index) [1, 9]: (404)
- Ammonia (index) [1, 9]: (74)
- Butyric Acid (index) [1, 9]: (1305)
- Lactic Acid (index) [1, 9]: (0)
- Propionic Acid (index) [1, 9]: (941)
- Succinic Acid (index) [1, 9]: (0)
- Body Weight Increase ± S.D. (piglets; [10]): 39.96 ± 5.83 kg
- Feed Conversion Ratio ± S.D. (piglets; [10]): 2.62 ± 0.15
- Body Weight Increase (index %) (piglets; 0.05% added to feed): (104) %
- Feed Conversion Ratio (index %) (piglets; 0.05% added to feed): (97) %
- Body Weight Increase ± S.D. (piglets; [11]): 40.92 ± 4.49 kg
- Feed Conversion Ratio ± S.D. (piglets; [11]): 2.58 ± 0.11
- Body Weight Increase (index %) (piglets; 0.1% added to feed): (106) %
- Feed Conversion Ratio (index %) (piglets; 0.1% added to feed): (96) %
- Body Weight Increase ± S.D. (piglets; [12]): 41.26 ± 3.44 kg
- Feed Conversion Ratio ± S.D. (piglets; [12]): 2.55 ± 0.17
- Body Weight Increase (index %) (piglets; 0.25% added to feed): (107) %
- Feed Conversion Ratio (index %) (piglets; 0.25% added to feed): (94) %
- Body Weight Increase ± S.D. (piglets; [13]): 40.43 ± 4.40 kg
- Feed Conversion Ratio ± S.D. (piglets; [13]): 2.63 ± 0.12
- Body Weight Increase (index %) (piglets; 0.5% added to feed): (105) %
- Feed Conversion Ratio (index %) (piglets; 0.5% added to feed): (97) %
- Body Weight Increase ± S.D. (piglets; [14]): 39.28 ± 2.58 kg
- Feed Conversion Ratio ± S.D. (piglets; [14]): 2.74 ± 0.05
- Body Weight Increase (index %) (piglets; 1.0% added to feed): (102) %
- Feed Conversion Ratio (index %) (piglets; 1.0% added to feed): (101) %
- number of Megasphaera elsdenii (Megasphaera elsdenii [2]; [15]): 6.4 logarithmic number of the cells in 1 g of culture
- Megasphaera elsdenii number (Megasphaera elsdenii [2]; in words): observed to increase
- number of Mitsuokella multiacidus (Mitsuokella multiacidus [3]; [15]): 7.2 logarithmic number of the cells in 1 g of culture
- Mitsuokella multiacidus number (Mitsuokella multiacidus [3]; in words): observed to increase
- feed efficiency improved by [4]: 6%
- Carbon Dioxide [5, 16]: 4330 µL/g
- Hydrogen [5, 16]: 211.99 µL/g
- Hydrogen Sulfide [5, 16]: 0.09 µL/g
- Methane [5, 16]: 30 µL/g
- Total Gas [5, 16]: 6880 µL/g
- hydrogen sulfide in the cultures ([5]; in words, compared with cultures with no additives): greatly reduced
- Acetic Acid (Megasphaera elsdenii [6]; [17]): 8.7 mM
- Butyric Acid (Megasphaera elsdenii [6]; [17]): 4.9 mM
- Propionic Acid (Megasphaera elsdenii [6]; [17]): 0.8 mM
- short-chain fatty acids produced by Megasphaera elsdenii utilizing sodium gluconate (Megasphaera elsdenii [6]; in words): produced a lot of acetic acid and butyric acid
- Acetic Acid, Difference (Megasphaera elsdenii [6]; [18]): 2.9 mM
- Butyric Acid, Difference (Megasphaera elsdenii [6]; [18]): 3.5 mM
- Propionic Acid, Difference (Megasphaera elsdenii [6]; [18]): -0.8 mM
- Acetic Acid (Mitsuokella multiacidus [7]; [17]): 9.9 mM
- Butyric Acid (Mitsuokella multiacidus [7]; [17]): 1.0 mM
- Propionic Acid (Mitsuokella multiacidus [7]; [17]): 43.1 mM
- short-chain fatty acids produced by Mitsuokella multiacidus utilizing sodium gluconate (Mitsuokella multiacidus [7]; in words): produced a lot of acetic acid and propionic acid
- Acetic Acid, Difference (Mitsuokella multiacidus [7]; [18]): 7.0 mM
- Butyric Acid, Difference (Mitsuokella multiacidus [7]; [18]): 0.7 mM
- Propionic Acid, Difference (Mitsuokella multiacidus [7]; [18]): 36.1 mM
- number of anaerobic microorganisms (anaerobic microorganisms; 0 hrs after start of incubation, 1 w/v % in PYF medium, 39° C.): <6.3 logarithmic number of the cells in 1 g of culture
- number of anaerobic microorganisms (anaerobic microorganisms; 8 hrs after start of incubation): 8.9 logarithmic number of the cells in 1 g of culture
- number of anaerobic microorganisms (anaerobic microorganisms; 24 hrs after start of incubation): 10.7 logarithmic number of the cells in 1 g of culture
- number of anaerobic microorganisms (anaerobic microorganisms; 48 hrs after start of incubation): 8.7 logarithmic number of the cells in 1 g of culture
- number of anaerobic microorganisms (anaerobic microorganisms; 96 hrs after start of incubation): 10.4 logarithmic number of the cells in 1 g of culture
- number of anaerobic microorganisms (anaerobic microorganisms; 144 hrs after start of incubation): 7.7 logarithmic number of the cells in 1 g of culture
- total number of anaerobic microorganisms (anaerobic microorganisms; in words): increased
